PubChem BioAssay (NCI)
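A five-concentration, 48-hour dose response in 96-well plates underlies each endpoint, interpolated linearly between surrounding concentrations. Here, GI50 denotes the concentration required for 50% inhibition of growth. TGI denotes the concentration required for complete inhibition of growth.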

Tests used:
Test in all cases: inhibition of tumour cell growth, NCI panel, 48 h
[1] = test system: SK-MEL-2 melanoma
[2] = test system: A549 NSCLC
[3] = test system: UO-31 renal
[4] = test system: MOLT-4 leukemia
[5] = test system: SNB-75 CNS
[6] = test system: KM12 colon
[7] = test system: SF-539 CNS
[8] = test system: HCT-116 colon
[9] = test system: SR leukemia

SMILES	TGI [1] [µM]	TGI [2] [µM]	TGI [3] [µM]	TGI [4] [µM]	TGI [5] [µM]	TGI [6] [µM]	TGI [7] [µM]	GI50 [8] [µM]	TGI [8] [µM]	GI50 [2] [µM]	GI50 [3] [µM]	GI50 [4] [µM]	GI50 [5] [µM]	GI50 [6] [µM]	GI50 [7] [µM]	TGI [9] [µM]	GI50 [1] [µM]	GI50 [9] [µM]
Cc1cc(N(CCC#N)CCC#N)ccc1N=Nc1cccc(C(=O)O)c1	> 100	> 100	> 100	> 100	> 100	> 100	> 100	–	–	–	–	–	–	–	–	–	–	–
COc1ccc(-c2n/c(=C\c3c(O)[nH]c4ccc(OC)cc34)cc3c2=Nc2ccccc2-3)cc1	–	66.2	56.1	5.27	2.99	> 100	3.4	1.85	3.33	3.43	18	2.41	1.55	3.8	1.85	–	–	–
O=c1/c(=C/c2ccccc2F)sc2nc3ccccc3n12	> 100	> 100	> 100	> 100	> 100	–	> 100	–	> 100	–	–	–	–	–	–	> 100	–	–
CC1=C(C)C(=O)c2c(cc3ccccn23)C1=O	–	43.1	65.1	> 100	43.1	31.3	37.1	–	–	–	–	–	–	–	–	72.5	–	–
CC1=C(Oc2ccccc2)C(CCC(=O)O)c2c(O)cc(Cl)c(O)c21 (stereo not given)	> 100	> 100	> 100	> 100	–	> 100	> 100	–	> 100	–	–	–	–	–	–	> 100	–	–
CCOc1ccc(NC(=O)C(=O)CC(=O)C2=C(C)Nc3ccccc3S2)cc1	> 50	> 50	> 50	> 50	–	> 50	> 50	–	> 50	–	–	–	–	–	–	–	–	–
COc1cc(OC(C)=O)cc2c(OC(C)=O)ccc(OC(C)=O)c12	> 100	> 100	> 100	> 100	–	> 100	–	–	> 100	–	–	–	–	–	–	> 100	–	–
C1C[OH+]CC[OH+]CCNCC[OH+]CC[OH+]CCN1.N.[Cl-].[Pt+4]	53	> 100	32	36.3	20.2	48.7	19.6	10.1	65.8	15.4	12.2	3.89	3.59	19	3.95	–	19.9	–
COC(C(=O)[O][Ge]([CH3])([CH3])[CH3])c1ccccc1 (stereo not given)	–	> 100	> 100	> 100	> 100	> 100	> 100	> 100	> 100	> 100	> 100	> 100	> 100	> 100	> 100	> 100	–	> 100
CCOC(=O)COc1ccccc1/C=C1\CCC(CN(C)C)C1=O (stereo not given)	24.7	42.8	29.9	4.61	29.5	13.3	26.6	–	9.36	–	–	–	–	–	–	–	–	–
COc1ccc(OC)c(NC(=O)C2=C(C)NC(C)=C(C(=O)Nc3cc(OC)ccc3OC)C2c2ccccc2)c1	> 100	> 100	> 100	> 100	91	> 100	> 100	–	> 100	–	–	–	–	–	–	–	–	–
CN(C)C(=O)OC(Cn1cncn1)c1ccc(Cl)cc1Cl (stereo not given)	> 100	> 100	> 100	> 100	> 100	> 100	> 100	–	> 100	–	–	–	–	–	–	–	–	–
O=C(CN1CCOCC1)Nc1nc(-c2ccc(Cl)cc2)cs1	54.5	> 100	67	42.6	62.6	48.1	> 100	–	–	–	–	–	–	–	–	–	–	–
NC1C[C@H](n2cc(/C=C/Br)c(=O)[nH]c2=O)C[C@@H]1CO (stereo not given in full)	–	–	> 100	> 100	> 100	–	> 100	–	–	–	–	–	–	–	–	–	–	–
CCCCC(CC)CN=C(N)NC(N)=NCCCCCCN=C(N)NC(N)=NCC(CC)CCCC (stereo not given)	–	–	10.1	–	–	–	–	–	–	–	3.03	–	–	–	–	–	–	–
Nc1ccn(CCNCCn2cnc3nc(N)[nH]c(=O)c32)c(=O)n1	> 100	> 100	> 100	–	–	> 100	> 100	–	> 100	–	–	–	–	–	–	> 100	–	–
CCN(CC)c1ccc(C(=O)c2ccccc2C(=O)O)c(O)c1	> 100	> 100	> 100	> 100	> 100	> 100	> 100	–	> 100	–	–	–	–	–	–	–	–	–
COc1ccc2nc(-c3cccs3)cc(C(O)CN3CCSCC3)c2c1 (stereo not given)	36	> 100	60.8	56.3	78.7	74.2	51.3	–	–	–	–	–	–	–	–	–	–	–
COC(=O)C(=O)C1(CCC(C)=O)c2ccccc2-c2c(C)ccc(C)c21 (stereo not given)	> 100	> 100	> 100	66	> 100	> 100	–	–	> 100	–	–	–	–	–	–	61.5	–	–
CC1SC2=NC3=C(c4ccccc4C3=O)C(c3ccc(F)cc3)N2C1=O (stereo not given)	> 100	> 100	> 100	> 100	> 100	> 100	> 100	–	> 100	–	–	–	–	–	–	–	–	–
